Target: T1, TUFM (mitochondrial elongation factor Tu) (Mus musculus, UniProt Q8BFR5)
T1 construct: endogenous protein in 3T3-L1 cell lysate
Assay: DARTS (pronase protection) immunoblot, dose-dependent, and DARTS LC-MS/MS in 3T3-L1 lysate
Format: biochemical

EC50: 14.4 µM
SMILES: COc1ccc(-c2oc3cc(O)cc(O)c3c(=O)c2O)cc1 [Kaem, kaempferide]
